In PMC9499987 (Antiviral Research, 2022):

Key:
HCoV-OC43 = assay: Anti-coronavirus activity assay; assay type: cell-based; conditions: HCT-8 cells, MOI 0.1, serial dilutions up to 50 μM
SARS-CoV-2 3CL^pro [1] = molecular target: T1, SARS-CoV-2 3CL^pro (Severe acute respiratory syndrome coronavirus 2, UniProt P0DTD1); assay: Microscale thermophoresis; assay type: binding
SARS-CoV-2 3CL^pro [2] = molecular target: T1, SARS-CoV-2 3CL^pro; assay: cell-based; conditions: EC50 against SARS-CoV-2 3CLpro (BRET ratio)

In the case of `C=C[C@@H]1C[C@]1(NC(=O)[C@@H]1C[C@@H]2CN1C(=O)[C@H](C(C)(C)C)NC(=O)O[C@@H]1C[C@H]1CCCCCc1nc3ccc(OC)cc3nc1O2)C(=O)NS(=O)(=O)C1CC1.O` [grazoprevir, Grazoprevir], the “inhibitory effect on the replication of HCoV-OC43” value (HCoV-OC43) is reported as “did not significantly inhibit”.
For `C=C(C)[C@@H]1CC[C@]2(C(=O)O)CC[C@]3(C)[C@H](CC[C@@H]4[C@@]5(C)CC[C@H](OC(=O)CC(C)(C)C(=O)O)C(C)(C)[C@@H]5CC[C@]43C)[C@@H]12` [bevirimat, Bevirimat], the “inhibitory effect on the replication of HCoV-OC43” value (HCoV-OC43) was “did not significantly inhibit”, the Kd (SARS-CoV-2 3CL^pro [1]; Kd(M), MST, target 100 nM, ligand 0.0153 μM–500 μM, MST power 40%) was 1.05e-05 M and the Kd (SARS-CoV-2 3CL^pro [1]; Kd, MST, labeled 3CLpro 100 nM, 40% MST power) was 1.05e-05 M.
Work on `Cc1c(O)cccc1C(=O)N[C@@H](CSc1ccccc1)[C@H](O)CN1C[C@H]2CCCC[C@H]2C[C@H]1C(=O)NC(C)(C)C` [nelfinavir, Nelfinavir] yielded a Kd (SARS-CoV-2 3CL^pro [1]; Kd) of 9.16e-05 M and a Kd (SARS-CoV-2 3CL^pro [1]; Kd(M)) of 9.16e-05 M.
`CC(C)(C)NC(=O)[C@@H]1C[C@@H]2CCCC[C@@H]2CN1C[C@@H](O)[C@H](Cc1ccccc1)NC(=O)[C@H](CC(N)=O)NC(=O)c1ccc2ccccc2n1` [saquinavir] was tested, and the EC50 (SARS-CoV-2 3CL^pro [2]) was 40 µM.
